The record followed here is BindingDB's records for doi:10.7270/Q29G5K5D (Cc_Pmlsc, 2007).

The structures appear in SMILES notation.

As a reminder, the IC50 is the midpoint of a concentration-inhibition curve. High values mean weaker potency in that assay, low ones greater potency in that assay.

The target in this assay is T1, Dual specificity protein phosphatase 1 (Homo sapiens, UniProt P28562).
T1 sequence (P28562 whole entry): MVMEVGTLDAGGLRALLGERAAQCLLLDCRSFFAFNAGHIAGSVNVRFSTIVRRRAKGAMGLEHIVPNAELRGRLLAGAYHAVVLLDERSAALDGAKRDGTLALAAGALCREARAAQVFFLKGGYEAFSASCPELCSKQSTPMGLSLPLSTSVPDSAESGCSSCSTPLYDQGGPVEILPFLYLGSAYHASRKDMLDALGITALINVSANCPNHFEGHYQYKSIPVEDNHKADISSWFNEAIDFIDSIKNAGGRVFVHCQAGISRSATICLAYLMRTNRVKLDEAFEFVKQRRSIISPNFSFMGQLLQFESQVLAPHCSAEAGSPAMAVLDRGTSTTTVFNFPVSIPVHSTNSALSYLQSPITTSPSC
Description: MKP-1 phosphatase inhibitors, SAR follow-up, biochemical, in vitro (AID 579). Particulars: pH 7; 23 °C.
Regarding `CC(C)Cn1c(N)c(C(=O)CCl)c(=O)n(C)c1=O` [6-amino-5-(2-chloro-1-oxoethyl)-3-methyl-1-(2-methylpropyl)pyrimidine-2,4-dione], the 50% inhibitory concentration (IC50) is above 50 µM.

Consider `NC(=O)NCc1ccccc1` [(phenylmethyl)urea], for which the concentration for half-maximal inhibition (IC50) is above 50 µM.

`CN(C)C=Nc1cc(=O)[nH]c(=O)n1CC1CC1` [CC-PMLSC- DMA-P139] gave a concentration for half-maximal inhibition (IC50) above 50 µM.

`CN(C)/C=N/c1cc(=O)n(C)c(=O)n1Cc1ccccc1` [CC-PMLSC-DMA-P129]: the concentration for half-maximal inhibition (IC50) is above 50 µM.

In turn, `CN(C)/C=N/c1cc(=O)n(Cc2ccccc2)c(=O)n1C` [CC-PMLSC-DMA-P131] gave an IC50 above 50 µM.

In the case of `CN(C)/C=N/c1cc(=O)n(C)c(=O)n1CC1CC1` [CC-PMLSC-DMA-P142], the concentration for half-maximal inhibition (IC50) is above 50 µM.

`CN(C)C=Nc1cc(=O)[nH]c(=O)n1Cc1ccccc1` [N'-[2,6-dioxo-3-(phenylmethyl)-4-pyrimidinyl]-N,N-dimethylmethanimidamide]: the IC50 is above 50 µM.

The compound `CN(C)C=Nc1cc(=O)[nH]c(=O)n1C` [N,N-dimethyl-N'-(3-methyl-2,6-dioxo-4-pyrimidinyl)methanimidamide] registered an IC50 above 50 µM.

Turning to `Cn1c(=O)c(C(=O)COC(=O)c2cc(-c3ccco3)nc3ccccc23)c(N)n(Cc2ccccc2)c1=O` [[2-(6-amino-1-benzyl-3-methyl-2,4-dioxopyrimidin-5-yl)-2-oxoethyl] 2-(furan-2-yl)quinoline-4-carboxylate], half-maximal inhibition (IC50) was put at 13.4 µM.
